How the values were obtained:
[1] = Blood sugar after oral (feeding probe) insulin with or without ε-amino-caproic acid in starved rats (Example 1); type: in vivo, Male Wistar rats; settings: n=4
Description: (§1) Male Wistar rats (Charles-River Laboratories, Budapest, Hungary) were used for the experiments. Before the experiment the animals were starved for 16 hours. The experiments started between 8 and 9 h in the morning. 2×6 groups were formed in a random manner, with 4 animals by group. The animals were pretreated through a feeding probe according to the followings: group 1: with 1 g/kg of ε-amino-caproic acid; group 2: with 0.1 U/kg of insulin; group 3: with 0.1 U/kg of insulin and 1 g/kg of ε-amino-caproic acid; group 4: with 1.0 U/kg of insulin; group 5: with 1.0 U/kg of insulin and 1 g/kg of ε-amino-caproic acid; and group 6: with a solvent.

[2] = Blood sugar (glucose oxidase method) after intraduodenal insulin-acepramin mixture with standard casein (Example 2); type: in vivo, male Wistar rats; settings: mean±S.D., n=8
Excerpt: (§2) Data: mean±S.D. with n=8 by group. Statistics: t-test with Bonferroni correction, after ANOVA.

[3] = Plasma insulin after oral (feeding probe) insulin with or without ε-amino-caproic acid in starved rats (Example 1); type: in vivo, Male Wistar rats; settings: n=4
Description: as §1

[4] = Plasma insulin immunoreactivity (radioimmunoassay) after intraduodenal insulin-acepramin mixture with standard casein (Example 2); settings: mean±S.D., n=8
Description: Healthy male Wistar rats (230-250 g) were given an ε-amino-caproic acid—human recombinant insulin mixture with standard casein intraduodenally. The endpoint of the measurement was the blood sugar measured with the glucose oxidase method, and the plasma insulin immunoreactivity measured with radioimmunoassay 15 and 60 minutes after the administration of the insulin-acepramin formulation (aqueous suspension).
as §2

α-chymotrypsin = α-chymotrypsin (Bos taurus, UniProt P00766); assay: In vitro stability of insulin in the presence of a protein degrading enzyme (reverse-phase HPLC); type: in vitro ADME; settings: after 120 minutes; insulin 100 μM, α-chymotrypsin 1.5 μg/10 μl; FIG. 1
Description: FIG. 1: Insulin (100 μM; native) stability in the presence of an equivalent quantity of insulin/ε-amino-caproic acid (acepramin, Sigma, MO) in a solution containing α-chymotrypsin (1.5 μg/10 μl).
In vitro stability means the biodegradation of a primitive formulation of the insulin-acepramin mixture in the presence of a protein degrading enzyme, as compared to native insulin (results of reverse-phase HPLC tests).

[5] = 15-minute values, insulin 0.1 IU/kg (combination: + 1 g/kg ε-amino-caproic acid)
[6] = 15-minute values, insulin 1.0 IU/kg (combination: + 1 g/kg ε-amino-caproic acid)
[7] = 60-minute values, insulin 0.1 IU/kg (combination: + 1 g/kg ε-amino-caproic acid)
[8] = 60-minute values, insulin 1.0 IU/kg (combination: + 1 g/kg ε-amino-caproic acid)

## NCCCCCC(=O)O [ε-amino-caproic acid, reference compound]
[1]; 15-minute values, 1 g/kg ε-amino-caproic acid alone
  Blood sugar: 5.43 ± 0.55 mmol/L
[1]; 60-minute values, 1 g/kg ε-amino-caproic acid alone
  Blood sugar: 5.37 ± 0.15 mmol/L
[2]; 15th minute, 100 mg/kg ε-amino-caproic acid alone
  Blood sugar: 6.9 ± 1.41 mmol/L
[2]; 60th minute, 100 mg/kg ε-amino-caproic acid alone
  Blood sugar: 7.3 ± 0.95 mmol/L

## insulin: biotechnologically produced human recombinant insulin, given alone (native, unformulated)
[1]; [5]
  Blood sugar: 5.96 ± 0.21 mmol/L
[1]; [6]
  Blood sugar: 5.77 ± 0.22 mmol/L
[1]; [7]
  Blood sugar: 4.97 ± 0.40 mmol/L
[1]; [8]
  Blood sugar: 4.67 ± 0.41 mmol/L
[3]; [5]
  Plasma insulin: 10.75 ± 2.21 μU/ml
[3]; [6]
  Plasma insulin: 38.25 ± 6.95 μU/ml
[3]; [7]
  Plasma insulin: 10.8 ± 1.68 μU/ml
[3]; [8]
  Plasma insulin: 23.87 ± 4.05 μU/ml
[2]; 15th minute, insulin 0.1 IU/kg (combination: + 100 mg/kg Acepramin), standard casein
  Blood sugar: 7.9 ± 0.92 mmol/L
[2]; 15th minute, insulin 1.0 IU/kg (combination: + 100 mg/kg ε-amino-caproic acid), standard casein
  Blood sugar: 7.7 ± 2.31 mmol/L
[2]; 60th minute, insulin 0.1 IU/kg (combination: + 100 mg/kg ε-amino-caproic acid), standard casein
  Blood sugar: 7.9 ± 0.83 mmol/L
[2]; 60th minute, insulin 1.0 IU/kg (combination: + 100 mg/kg ε-amino-caproic acid), standard casein
  Blood sugar: 6.9 ± 0.62 mmol/L
[4]; 15th minute, insulin 0.1 IU/kg (combination: + 100 mg/kg Acepramin)
  Plasma insulin: 14.4 ± 1.51 μU/ml
[4]; 15th minute, insulin 1.0 IU/kg (combination: + 100 mg/kg ε-amino-caproic acid)
  Plasma insulin: 27.5 ± 3.95 μU/ml
[4]; 60th minute, insulin 0.1 IU/kg (combination: + 100 mg/kg ε-amino-caproic acid)
  Plasma insulin: 17.3 ± 2.94 μU/ml
[4]; 60th minute, insulin 1.0 IU/kg (combination: + 100 mg/kg ε-amino-caproic acid)
  Plasma insulin: 17.1 ± 2.06 μU/ml
α-chymotrypsin
  insulin degraded: more than 80%

Reference: patent US20120129769A1, “ORALLY ADMINISTERABLE PHARMACEUTICAL PREPARATION CONTAINING INSULIN” (priority 2009, published 2012)
